What was measured:
[1] = tested on: bile duct ligation (BDL)-mediated fibrosis; test: Bile duct ligation model of liver fibrosis; type: in vivo, mouse; conditions: BDL mice, DHX 5 mg/kg i.p. daily Day 7 for 14 days
Description: Bile Duct Ligation: BDL was performed as previously described. Briefly, 8-10 weak old female C57BL/6N underwent either BDL or sham surgery. Mice were anesthetized on Day 0 following IACUC protocol, and the bile duct was ligated using sterile 3/0 silk ligatures. Sham surgery was performed by passing a silk ligature under the bile duct. Starting on Day 7, DHX (5 mg/kg) or vehicle control was administered everyday intraperitoneally (i.p.) for 14 days. Following the final DHX treatment, mice were sacrificed and the livers harvested for analysis of fibrosis.
Histological Scoring: Five μm thick sections were cut from Paraffin embedded lung tissues, and the sections were stained either with hematoxylin and eosin (H&E) or with Masson's Trichrome stain kit (Abcam). […] The severity of interstitial and peribronchiolar lung immature and mature fibrosis was estimated on a numerical scale according to Ashcroft et al. For scoring purposes, all H&E stained slides were systematically scanned at 100× magnification and successive 100× fields were scored. […] The predominant score for each field was recorded. The mean of all scores was calculated for each case. Liver trichrome stained sections were computationally measured using Image J software. […]
Hydroxyproline: Hydroxyproline content was measured using a hydroxyproline assay kit (Biovision) according to the manufacture's instruction with slight modification. […]

[2] = tested on: bleomycin-induced pulmonary fibrosis; test: Bleomycin mouse model of pulmonary fibrosis; type: in vivo; conditions: bleomycin mice
Description: Bleomycin Mouse Study: In the initial in vivo siRNA study (FIGS. 22 and 23A-23C), adult male age-matched C57BL/6N mice at 6-8 weeks of age were purchased from the National Cancer Institute (NCI)-Frederick Mouse Repository (Frederick, MD, USA). All experiments were performed in accordance with National Institute of Health guidelines and protocols approved by the Massachusetts General Hospital Subcommittee on Research Animal Care, and maintained all mice in a specific pathogen-free (SPF) environment certified by the American Association for Accreditation of Laboratory Animal Care (AAALAC). 6-8 weeks old mice were anesthetized with ketamine and xylazine before exposure of the trachea. Lung fibrosis was induced by intratracheal injection of bleomycin (50 μl at 1.2 U/kg) or phosphate buffered saline (PBS; as control) on day 0. After 14 days Small interfering RNA (siRNA) duplexes targeting mouse Yap (L-046247-01-0005) or Taz (L-058248-01-0005) mRNA (Dharmacon) or nontargeting control siRNA were administered in vivo by intratracheal instillation at a single dose of 25 μg (each siRNA) per mouse. On day 21 Mice were sacrificed and lungs harvested for collagen determination and biochemical analyses. To obtain BAL samples for total protein concentration determination, lungs were lavaged with six 0.5-mL aliquots of PBS. BAL samples were centrifuged at 3,000 g for 20 min at 4° C. and transferred the supernatants to siliconized low-binding Eppendorf tubes (PGC Scientifics) for subsequent analysis. Total protein concentration of the BAL fluid was determined by BCA Protein Assay Kit (Pierce). In the dihydrexidine treatment studies (FIG. 17-21), 8 week old female C57/BL6 mice were purchased from Charles River Laboratories. Mouse lung fibrosis was induced with bleomycin (BLEO; Fresenius Kabi) delivered intratracheally (3 U/kg) to the lungs using MicroSprayer® Aerosolizer (Penn-Century). The Sham mice received sterile 0.9% saline instead using identical methods. Mice were weighed every 24 hrs, and both groups were then randomized at day 10 into DHX and Control treatment groups, matching for the degree of weight change. DHX (5 mg/kg) was administered everyday intranasally (i.n.) dissolved in surfactant (infasurf) which has previously shown to aid in spreading to pulmonary aveoli for 14 days. The control groups of mice received the equivalent vehicle dose of surfactant. Following the final DHX treatment, mice were sacrificed and the right lungs were inflated with 4% paraformaldehyde (PFA) and further incubated in 4% PFA for 24 hours prior processing for paraffin embedding. The left lobe of the lung was snap frozen in liquid nitrogen for RNA isolation and hydroxyproline assay. Experimental procedures were approved by the Mayo Clinic Institutional Animal Care and Use Committee and the animals were handled in accordance with their guidelines.
Histological Scoring: Five μm thick sections were cut from Paraffin embedded lung tissues, and the sections were stained either with hematoxylin and eosin (H&E) or with Masson's Trichrome stain kit (Abcam). All H&E-stained slides and trichrome-stained slides were reviewed in a blinded fashion by a thoracic pathologist. The severity of interstitial and peribronchiolar lung immature and mature fibrosis was estimated on a numerical scale according to Ashcroft et al. For scoring purposes, all H&E stained slides were systematically scanned at 100× magnification and successive 100× fields were scored. Scoring was based on the following scale: 0 (no fibrosis), 1 (minimal interstitial and/or peribronchiolar thickening due to fibrosis), 3 (moderate thickening without obvious architectural distortion), 5 (increased fibrosis with formation of fibrous bands and/or small masses), 7 (severe architectural distortion with large areas of fibrosis and areas of honeycomb changes), and 8 (total fibrous obliteration of the field). The predominant score for each field was recorded. The mean of all scores was calculated for each case. […]

How did the “collagen deposition (hydroxyproline)” value [1] turn out when `Oc1cc2c(cc1O)[C@H]1c3ccccc3CN[C@@H]1CC2` (racemic) [Dihydrexidine] was run?
The value was “trend toward reduced collagen deposition”.

What about the “histological fibrosis (trichrome)” value [1] of the same compound?
The value was “significantly improved histological fibrosis”.

What about the “lung remodeling by histology (Ashcroft, blinded pathologist)” value ([2]; DHX 5 mg/kg i.n. Day 10-24) of the same compound?
The value was “nearly completely protected from lung remodeling”.

What about the “lung transcript levels of Acta2, Ctgf, Fn1, Col1a1, Col1a2, Yap and Taz” value ([2]; DHX 5 mg/kg i.n. Day 10-24) of the same compound?
The value was “significantly attenuated”.

What about the “staining for YAP and TAZ in the lungs” value ([2]; DHX 5 mg/kg i.n. Day 10-24) of the same compound?
Its value is “attenuated”.

What about the “total collagen in the lungs (hydroxyproline)” value ([2]; DHX 5 mg/kg i.n. Day 10-24) of the same compound?
Its value is “nearly identical to sham treated mice”.

What about the weight change ([2]; DHX 5 mg/kg once daily i.n. from Day 10, vs Bleo control) of the same compound?
Its weight change is “lost significantly less weight”.

And the “expression of YAP/TAZ target genes in flow-sorted lung cells” value ([2]; two doses of DHX on day 10, lungs collected day 11)?
Its value is “selectively blocks expression of YAP/TAZ target genes in lung fibroblasts”.

From patent US12264163B2, “Compounds and methods for treating fibrotic pathologies” (Mayo Foundation for Medical Education and Research, priority 2019, dated 2025)
